The values below come from patent US20080176225A1, “MEMBRANE BOUND REPORTER GENE SYSTEM” (priority 2007, published 2008).

The target of data set [1] is T1, mβG-eB7 (Mus musculus, UniProt P12265, G265D/I320V).
T1 construct: expressed in transfected cells
T1 sequence (P12265 with tags, fused parts or gaps G265D/I320V): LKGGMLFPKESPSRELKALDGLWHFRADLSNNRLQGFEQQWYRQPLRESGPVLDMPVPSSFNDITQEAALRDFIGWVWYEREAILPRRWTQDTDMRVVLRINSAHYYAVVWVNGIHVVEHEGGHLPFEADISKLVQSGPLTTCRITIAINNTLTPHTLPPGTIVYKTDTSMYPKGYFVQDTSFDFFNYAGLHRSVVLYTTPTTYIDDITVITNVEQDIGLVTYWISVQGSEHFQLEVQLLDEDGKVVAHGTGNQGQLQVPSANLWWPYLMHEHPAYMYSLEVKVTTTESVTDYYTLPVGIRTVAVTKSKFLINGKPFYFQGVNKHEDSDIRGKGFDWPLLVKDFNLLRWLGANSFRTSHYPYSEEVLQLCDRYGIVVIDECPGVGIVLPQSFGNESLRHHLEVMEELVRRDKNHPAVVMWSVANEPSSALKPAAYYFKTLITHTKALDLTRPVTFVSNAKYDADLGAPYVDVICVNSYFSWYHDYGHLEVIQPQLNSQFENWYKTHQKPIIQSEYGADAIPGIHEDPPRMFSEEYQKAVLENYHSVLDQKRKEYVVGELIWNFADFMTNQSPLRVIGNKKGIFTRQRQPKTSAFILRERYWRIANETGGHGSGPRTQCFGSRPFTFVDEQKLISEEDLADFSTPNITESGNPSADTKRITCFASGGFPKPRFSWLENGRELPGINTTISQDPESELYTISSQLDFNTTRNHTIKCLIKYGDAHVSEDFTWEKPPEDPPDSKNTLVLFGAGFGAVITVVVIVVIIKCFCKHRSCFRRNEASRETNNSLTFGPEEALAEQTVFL
As to the kind of experiment: In vivo imaging of FDGlcU in nude mice with HCC36 tumors injected with Ad5/mβG-eB7. The conditions noted are these: 10^9 pfu intratumoral, FDGlcU i.v. two days later. As to the method: To image Ad5/mβG-eB7, nude mice (n=3) bearing established HCC36 tumors (200-300 mm^3) in their left and right chest's regions were injected in the right HCC36 tumor with 10^9 pfu of Ad5/mβG-eB7 in 50 μl of phosphate-buffered saline (PBS). Two days later, the mice were i.v. injected with 500 μg of FDGlcU. Whole-body images were obtained in 3 min scans over 2 hour.
After the tumors grew, 10^9 pfu of Ad5/mβG-eB7 was directly injected into the HCC36 tumor on the right side of the mouse. Two days later, the mouse was i.v. injected with FDGlcU and whole-body optical imaging was performed.
Tumor cells were collected 30 minutes after FDGlcU injection were stained with X-GlcA and nuclear fast red and then viewed under phase contrast and fluorescence microscopes.

The target in data set [2] is T1, mβG-eB7. As to the kind of experiment: FDGlcU staining of HCC36 cells infected with Ad5/mβG-eB7, flow cytometer. The format is cell-based. From the text: HCC36 cells (open curve) and HCC36 cells infected with Ad5/mβG-eB7 (solid curve) were stained for the presence of the […] epitope in mβG-eB7 (left panel) or directly stained with FDGlcU (right panel) and then analyzed on a flow cytometer.
As shown by staining of membrane β-glucuronidase with anti-myc antibody in the left panel of FIG. 10, HCC36 cells were successfully infected with Ad5/mβG-eB7.
(Flow cytometry measures light scatter and fluorescence of single cells or particles in a stream.)

For data set [3], the target named is T1, mβG-eB7. As to the kind of experiment: Biodistribution by optical imaging of whole-body frozen sections after i.v. FDGlcU or fluorescein. The format is in vivo. As to conditions: 30 minutes after i.v. injection of 500 μg. How it is done: In vivo biodistribution of fluorescein was measured around 30 minutes after i.v. injection of the substrate, FDGlcU, (left panel) or fluorescein (right panel). The biodistribution of activated FDGlcU was examined by killing tumor-bearing mice 30 minutes after they received an injection of FDGlcU or fluorescein and then performing optical imaging of whole-body frozen sections. The intensity of the fluorescence of whole-body sections was measured with the IVIS® Imaging System 50 (Xenogen, Alameda, Calif.).
For example, mice (n=3) were i.v. injected with 500 μg FDGlcU or fluorescein 30 min before the mice were dipped into isopentane at liquid nitrogen temperatures and embedded on a cryostat holder (7×5 cm) in 4% carboxylmethylcellulose. The fluorescence signals of 30 μm whole-body sections were measured on a IVIS® Imaging System 50 (Xenogen, Alameda, Calif.) and the regions of interest were analyzed with Living Image® software (Xenogen).
FIG. 9 is a graph showing a comparison of the results of the example of FIG. 8 in different organ regions of interest according to one embodiment of the invention. After i.v. injection of FDGlcU or fluorescein, mice were analyzed with Living Image® software. […] The fluorescent intensity in CT26/mβG-eB7 tumors was about 240 times greater than in the CT26 tumors (FIG. 9). Fluorescent signals were also observed in the intestinal tract.

Data set [4] deals with T2, hβG-eB7 (UniProt P08236+Q00609, L649P).
T2 construct: expressed in transfected cells; host or cells: EJ human bladder carcinoma cells, retroviral transduction with pLNCX-hβG-eB7; tumours in nude mice
T2 sequence (P08236+Q00609 with tags, fused parts or gaps P08236:L649P): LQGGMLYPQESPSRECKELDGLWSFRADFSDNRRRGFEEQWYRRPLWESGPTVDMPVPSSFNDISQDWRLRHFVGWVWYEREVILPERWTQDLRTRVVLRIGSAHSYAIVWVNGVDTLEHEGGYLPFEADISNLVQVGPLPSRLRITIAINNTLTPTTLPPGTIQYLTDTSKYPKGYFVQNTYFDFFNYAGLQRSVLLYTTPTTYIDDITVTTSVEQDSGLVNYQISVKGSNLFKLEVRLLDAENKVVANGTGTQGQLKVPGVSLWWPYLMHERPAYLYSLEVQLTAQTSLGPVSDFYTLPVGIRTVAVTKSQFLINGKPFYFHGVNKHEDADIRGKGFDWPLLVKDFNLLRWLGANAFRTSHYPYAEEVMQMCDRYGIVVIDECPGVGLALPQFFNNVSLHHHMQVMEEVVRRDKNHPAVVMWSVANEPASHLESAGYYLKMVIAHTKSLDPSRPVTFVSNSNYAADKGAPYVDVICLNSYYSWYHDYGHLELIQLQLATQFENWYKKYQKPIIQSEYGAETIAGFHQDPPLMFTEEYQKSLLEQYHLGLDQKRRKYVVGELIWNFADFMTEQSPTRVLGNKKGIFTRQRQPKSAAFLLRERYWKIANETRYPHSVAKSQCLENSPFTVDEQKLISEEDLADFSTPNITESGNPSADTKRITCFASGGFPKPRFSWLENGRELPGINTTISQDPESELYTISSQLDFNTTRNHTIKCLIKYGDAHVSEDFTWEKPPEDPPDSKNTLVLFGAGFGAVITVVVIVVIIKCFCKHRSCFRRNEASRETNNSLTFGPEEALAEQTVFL
As to the kind of experiment: In vivo imaging of FDGlcU in nude mice bearing EJ and EJ/hβG-eB7 tumors. The conditions noted are these: 500 μg i.v. Also noted: species or system human. How it is done:
Retroviral vector pLNCX-hβG-eB7 was constructed and infected to EJ human bladder carcinoma cells (EJ/hβG-eB7) to express functionally active human β-glucuronidase on the membrane. hβG-eB7 was imaged in nude mice (n=3) bearing established EJ and EJ/hβG-eB7 tumors (200-300 mm^3) in their left and right chest regions, respectively, by i.v. injecting 500 μg FDGlcU and performing imaging and histological analysis of fluorescent intensity and βG activity as described above.
FDGlcU was i.v. injected into mice bearing EJ (left) and EJ/hβG-eB7 (right) tumors and whole-body images were acquired at the indicated times (3 mins, 30 mins, 60 mins). […] Live EJ cells (open curve) and EJ/hβG-eB7 cells (solid curve) were immunofluorescence stained for the myc epitope (left panel) or incubated with FDGlcU (right panel), respectively, and analyzed on a flow cytometer.

The target in data set [5] is T1, mβG-eB7. As to the kind of experiment: In vivo whole-body optical imaging of FDGlcU activation in mice bearing CT26 and CT26/mβG-eB7 tumors. As to conditions: Balb/c mice, 500 μg i.v. As to the method:
To investigate whether expression sites of membrane bound β-glucuronidase reporter system could be non-invasively detected (in vivo imaging), Balb/c mice bearing established CT26 and CT26/mβG-eB7 colon tumors in their left and right chest regions, respectively, were intravenously injected with about 500 μg of non-fluorescent FDGlcU. Whole-body images of the mice were acquired by performing 3 minute scans.
As an example, Balb/c mice (n=3) bearing established CT26 and CT26/mβG tumors (200-300 mm^3) in their left and right chest regions, respectively, were i.v. injected with 500 μg FDGlcU. Whole-body images of pentobarbital-anesthetized mice were obtained by performing 3 minutes scans over 90 minutes on a Kodak IS2000MM optical imaging system. The fluorescence intensities were analyzed with KODAK 1D Image Analysis Software.
The distribution of activated FDGlcU in CT26 (open circle) and CT26/mβG-eB7 (black dot) tumors (n=4) was determined by measuring fluorescence intensities in 3 minute scans performed over 90 minutes.

For data set [6], the target named is T1, mβG-eB7. The data set can be described thus: FDGlcU hydrolysis on live CT26 and CT26/mβG-eB7 cells, confocal microscopy. In kind it is cell-based. The conditions noted are these: 40 μM FDGlcU, pH 6.5, 37° C., 40 minutes. As to the method: For example, functional expression of membrane bound β-glucuronidase on a host cell can be measured by incubating the host cells (with and without the recombinant reporter gene systems, such as CT26 or CT26/mβG-eB7 cells) with 40 μM FDGlcU (Invitrogen, Calsbad, Calif.) in phosphate-buffered saline containing 0.1% BSA, pH 6.5 at 37° C. for 40 minutes and then staining the cells with anti-myc antibody (5 μg/ml, clone Myc 1-9EIO.2, American Type Culture Collection, Manassas, Va.) at about 4° C. for about 1 hour. The cells can be washed with cold phosphate-buffered saline and incubated with rhodamine-conjugated rabbit anti-mouse IgG antibody (5 μg/ml) at about 4° C. for about 1 hour. The cells are then washed with cold phosphate-buffered saline, mounted with fluorescence mounting medium (anti fade; DakoCytomation, Carpinteria, Calif.), and viewed under a digital fluorescence confocal microscope.

Data set [7] has as its target Recombinant E. coli β-glucuronidase (Escherichia coli, UniProt P05804). The data set can be described thus: Trapping of FITC-trap-glu on coated β-glucuronidase detected by anti-FITC antibody ELISA. As to conditions: β-glucuronidase and BSA about 2 μg/well, serial dilutions, about 60 mins. In kind it is biochemical. How it is done:
Recombinant E. coli β-glucuronidase (about 2 μg/well) and bovine serum albumin (about 2 μg/well) were coated in 96 well microtiter plates and blocked with about 2% of skin milk. Serial dilutions of the FITC-trap-glu probe in phosphate-buffered saline were added to the wells of the microtiter plates at room temperature for about 60 mins. The plates were washed 3 times with phosphate-buffered saline. The plates were stained with about 1 μg/mL of an anti-FITC antibody followed by about 1 μg/mL of horse-radish peroxidase-conjugated anti-mouse IgG. The plates were washed and bound peroxidase activity was measured by adding about 100 μL/well of ABTS solution (about 0.4 mg/mL of 2,2′ azino-di(3-ethylbenzthiazoline-6-sulfonic acid), about 0.003% of H2O2, about 100 mM of phosphate-citrate, pH 4.0) for about 30 min at room temperature.
(In general: An ELISA detects its analyte on a solid surface through an enzyme-linked reagent.)

Data set [8] addresses T1, mβG-eB7. As to the kind of experiment: ^124I-trap-glu conversion by CT26/mβG-eB7 or CT26 cells, bound radioactivity in gamma-counter. The format is cell-based. The conditions noted are these: graded concentrations, room temperature, about 40 mins. As to the method:
Graded concentrations of the ^124I-trap-glu probe/substrate were incubated with CT26/mβG-eB7 (▪) or CT26 cells (□) in phosphate-buffer saline at room temperature for about 40 mins. The plates containing the transfected cells were washed and bound radioactivity was measured in a gamma-counter.

Data set [9] deals with T1, mβG-eB7. As to the kind of experiment: ^124I-ph-trap-glu conversion by CT26/mβG-eB7 or CT26 cells, cell radioactivity in gamma-counter. The format is cell-based. The conditions noted are these: graded concentrations, room temperature, about 40 mins. As to the method:
Graded concentrations of the ^124I-trap-glu probe was added to 96-well microtiter plates coated with CT26/mβG-eB7 (▪) or CT26 cells (□) in phosphate-buffered saline at room temperature for about 40 mins. The plates were then washed to remove non-precipitated probes and the cells were collected by treatment with trypsin. The radioactivity of cells was then measured in a gamma-counter.

Recombinant E. coli β-glucuronidase, sequence (P05804 whole entry): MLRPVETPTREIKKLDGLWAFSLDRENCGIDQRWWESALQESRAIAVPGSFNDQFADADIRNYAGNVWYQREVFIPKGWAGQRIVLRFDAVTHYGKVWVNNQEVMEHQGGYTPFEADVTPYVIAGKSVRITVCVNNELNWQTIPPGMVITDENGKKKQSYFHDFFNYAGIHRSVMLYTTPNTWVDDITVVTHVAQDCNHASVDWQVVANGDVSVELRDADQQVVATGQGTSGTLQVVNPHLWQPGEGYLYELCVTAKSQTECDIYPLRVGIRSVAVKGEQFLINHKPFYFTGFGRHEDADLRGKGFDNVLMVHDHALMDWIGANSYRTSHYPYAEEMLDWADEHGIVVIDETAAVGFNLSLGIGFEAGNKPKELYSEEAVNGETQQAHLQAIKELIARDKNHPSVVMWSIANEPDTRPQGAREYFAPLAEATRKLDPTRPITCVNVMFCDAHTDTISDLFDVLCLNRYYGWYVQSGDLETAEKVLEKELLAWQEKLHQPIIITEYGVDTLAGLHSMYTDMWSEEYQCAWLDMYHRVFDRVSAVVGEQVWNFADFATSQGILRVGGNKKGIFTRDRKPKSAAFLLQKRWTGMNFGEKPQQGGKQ

Turning to `O=C1OC2(c3ccc(O[C@@H]4O[C@H](C(=O)O)[C@@H](O)[C@H](O)[C@H]4O)cc3Oc3cc(O[C@@H]4O[C@H](C(=O)O)[C@@H](O)[C@H](O)[C@H]4O)ccc32)c2ccccc21` [FDGlcU, fluorescein di-β-D-glucuronide], the “fluorescence of Ad5/mβG-eB7 injected HCC36 tumor vs non-infected HCC36 tumors” value in [1] is reported as “obvious fluorescence”. Also, the “activation of FDGlcU at Ad5/mβG-eB7 infected HCC36 cells” value in data set [2] is listed as “activated to fluorescent product at the infected cells”. Besides, the “fluorescent intensity in CT26/mβG-eB7 tumors relative to CT26 tumors” value in data set [3] (whole-body sections) is recorded as “about 240 times”. The “conversion to fluorescent reporter in EJ/hβG-eB7 vs control EJ tumors” value in data set [4] is “preferentially converted to a fluorescent reporter in EJ/hβG-eB7 tumors but not in control tumors”. For the same molecule, the “time of highest fluorescence after FDGlcU injection” value in [5] (3 minute scans over 90 minutes) came to 30 min. The “conversion of FDGlcU to fluorescein in CT26/mβG tumors vs control CT26 tumors” value in data set [5] (whole-body images at 3, 30, 60 mins) is “selectively converted to fluorescein”. In data set [6], the “conversion of FDGlcU to fluorescein on cells” value is given as “only CT26/mβG-e-B7 cells”.
As for `O=C1OC2(c3ccc(O)cc3Oc3cc(O)ccc32)c2ccccc21` [fluorescein], in data set [3] (tumor-bearing mice), the in vivo biodistribution entry was “largely accumulated in the intestinal tract and kidneys”.
For “N-fluorescein-isothiocyanato (3-difluoromethylphenyl)-β-D-glucopyronuronate [FITC-trap-glu]”, the “trapping by β-glucuronidase detected by anti-FITC antibody” value in data set [7] was “specific trapping”.
In the case of “^124I-difluoromethylphenol glucuronide [^124I-trap-glu]”, the “conversion of probe to ^124I-trap product in CT26/mβG-eB7 vs CT26 cells” value in data set [8] is “specifically converts”.
Consider “^124I-phenolphthalin glucuronide [^124I-ph-trap-glu]”, for which, in [9], the “conversion of probe to ^124I-trap reporter product in CT26/mβG-eB7 vs CT26 cells” value was “specifically converts”.
